Test results from publication PMC5067538 (Frontiers in Microbiology, 2016).
Like-named read-outs stand apart in the source and are kept apart here.

How the values were obtained:
[1] = target: T1, PrbP/RpoB (two-hybrid, PrbP with RpoB 21-150) (Candidatus Liberibacter asiaticus, UniProt A0ABM5NE52); details: E. coli TOP10, 240 min, 37 °C, inhibition of PrbP/RpoB interaction, indirect reporter
T1 construct: gene WSI_01420

PrbP (CLIBASIA_01510) = target: T2, PrbP (CLIBASIA_01510) (Candidatus Liberibacter asiaticus, UniProt A0ABM5NE52); details: 2.5 µM PrbP, 1 ng biotin-labelled rplK promoter probe, 10 mM HEPES pH 7.5, 150 mM NaCl, 37 °C
T2 construct: gene WSI_01420

Compound: CN(C)Cc1c[nH]c2ccccc12 [Gramine]
- β-galactosidase activity^d (% decrease) ([1]; 40 µM compound): 15.3 ± 0.3%

Compound: Cc1ncc([N+](=O)[O-])n1CCO [Metronidazole]
- β-galactosidase activity^d (% decrease) ([1]; 50 µM compound): 53.7 ± 10%

Compound: Cc1c(Cl)cccc1Nc1ccccc1C(=O)O [Tolfenamic acid]
- complete disruption (PrbP (CLIBASIA_01510)): 350 µM
- β-galactosidase activity^d (% decrease) ([1]; 25 µM compound): 17.5 ± 5.3%
